In article PMC8457056, “Remodeling of the Fibrillation Pathway of α‐Synuclein by Interaction with Antimicrobial Peptide LL‐III” (Chemistry (Weinheim an Der Bergstrasse, Germany), 2021):

Experiments:
[1] = test system: neuronal SH‐SY5Y cells stably expressing an α‐Syn‐GFP fusion protein; test: PFF-induced α-Syn-GFP aggregation in SH-SY5Y cells (structured-illumination microscopy); format: cell-based; settings: 1 μM LL-III 1 h before PFF; for cells with α‐Syn‐GFP aggregates: 5 independent experiments, at least 150 cells per condition
Experimental: Finally, to test the anti‐aggregation activity of LL‐III in a cellular model, we used the α‐Syn pre‐formed fibril (PFF) model, which involves conversion of recombinant monomeric α‐Syn protein into fibrillar seeds that were added to neuronal SH‐SY5Y cells stably expressing an α‐Syn‐GFP fusion protein.[32, 33] In brief, untreated cells expressed soluble α‐Syn‐GFP that was rather homogenously distributed throughout the cells (Figure 3, left panel). Treatment of cells with PFF seeds caused aggregation of α‐Syn‐GFP, reflected by the formation of GFP‐positive foci (Figure 3, middle and right panel). These α‐Syn‐GFP aggregates could be visualized already 24 h after PFF treatment by fluorescence super‐resolution structured illumination microscopy.
Figure 3 LL‐III decreases PFF‐induced α‐Syn aggregation in neuronal cells. SH‐SY5Y cells stably expressing α‐Syn‐GFP were pre‐treated without or with LL‐III 1 h before adding PFF seeds to induce α‐Syn aggregation. A. α‐Syn was visualized by structured‐illumination microscopy 24 h and 48 h after PFF treatment. Green: α‐Syn (GFP), blue: nuclei (DAPI). B. Quantification of cells with α‐Syn aggregates was based on 5 independent experiments. In total, at least 150 cells were counted per condition. Data were processed by a Kolmogorov‐Smirnov test for Gaussian distribution followed by an unpaired two‐tailed Student's t‐test. *** p≤0.001.
LL‐III was pre‐incubated with α‐Syn‐GFP‐expressing SH‐SY5Y cells at a concentration of 1 μM one hour before PFF treatment to allow cellular uptake of LL‐III. The number of cells with α‐Syn‐GFP aggregates was quantified 24 h and 48 h after PFF seeding. […]
µM) and following the anisotropy changes of the Trp residue. […] The anisotropy was evaluated at 354 nm which corresponds to the maximum of emission of the free peptide. […]
Far-UV circular dichroism (CD) spectra were recorded by using a Jasco J- 715 spectropolarimeter from Jasco Cor-poration (Tokyo, Japan). […] A blank spectrum of 20 mM sodium acetate buffer, pH 5.0, was recorded and subtracted from all the samples spectra. […]

[2] = test system: α‐Syn; test: fraction of complexed α-Syn calculated from Kb; format: binding, human; settings: 100 μM α-Syn, calculated from K b
Experimental: From the magnitude of K b, the fraction of complexed α‐Syn in the microscopy experiments could be calculated (Figure S5). For 100 μM α‐Syn, the fraction of complexed α‐Syn, θ, in the presence of 50 μM LL‐III amounts to about 0.3. […] This is likely due to the ability of the peptide to interact with one or two α‐Syn molecules within the droplets. The interaction is expected to occur mainly via the interaction of the positively charged (+6) and hydrophobic groups of LL‐III with the negatively charged C‐terminus (−12) and hydrophobic NAC region of α‐Syn, respectively. […] In the presence of 200 μM and 500 μM LL‐III, the θ‐values are 0.70 and 0.90, respectively.
Figure S4. Binding isotherm obtained by means of Trp steady-state fluorescence anisotropy. The experiment was performed by titrating a 5 µM solution of LL-III with a solution of α-Syn in the range 0-50 µM. The red line represents the best fit according to a 1:1 binding model. The experiments were performed in 20 mM sodium acetate buffer, pH 5.0, at 25 °C.
Figure S5. Plot of the fraction of bound α -Syn as a function of the total peptide concentration. The fraction of bound α -Syn was calculated according to the concentration used in the phase- contrast light microscopy experiments reported in Figu re 1 B of the main text: 100 µ M α-Syn and 50 µM (grey circle), 200 µM (red circle) and 500 µ M (blue circle) of LL-III. […]

## NH2-VNWKKIL GKIIKVVK -CONH2 [LL‐III]
[1]; 24 h after PFF seeding, without LL-III 48 %
  cells with α‐Syn‐GFP aggregates: 30%
[1]; 24 h and 48 h
  change in number of cells with aggregates: significantly decreased
[1]; 48 h after PFF seeding, without LL-III 54 %
  cells with α‐Syn‐GFP aggregates: 36%
[2]; 50 μM LL-III
  fraction of complexed α‐Syn, θ: about 0.3
[2]; 200 μM LL-III
  fraction of complexed α‐Syn, θ: 0.70
[2]; 500 μM LL-III
  fraction of complexed α‐Syn, θ: 0.90
